“Also recorded” adds a separate entry of the source. One block for each compound: values may come before it.
Assays:
L2G85 mice [1] = assay: BAT imaging after intraperitoneal injection; format: in vivo; details: for signal from BAT (intact and excised) after intraperitoneal injection: i.p., 0.1% BSA in PBS, 30 min
Procedure: Intraperitoneal injection: Anesthetized mice received a 100 μl volume intraperitoneal injection of 200 μM FFA-luc or FFA-S-luc (0.014 mg) bound to 0.1% BSA in PBS immediately prior to imaging. Luminescent images were acquired with a 3-minute exposure back to back for 30-minutes.
BAT imaging: Anesthetized mice received 100 μl volume intraperitoneal injection of 200 μM FFA-luc (0.014 mg) immediately prior to imaging. Luminescent images were acquired with a 3-minute exposure back to back for 30-minutes. For BAT activation imaging, mice received intraperitoneal injections of the β-adrenergic stimulator CL316,243 at 1 mg/kg 20 minutes prior to the FFA-luc injection.

L2G85 mice [2] = assay: Intestinal uptake after oral gavage, bioluminescence imaging; format: in vivo; details: for bioluminescent signal in the live animal after oral gavage: luciferase-expressing mice
Procedure: To translate the imaging technique described above to in vivo systems, L2G85 mice were utilized. L2G85 mice express luciferase throughout their bodies. Initial experiments focused on detection of intestinal FFA uptake using oral gavages of the FFA-luc compound. […] This is consistent with known fatty acid uptake localization and kinetics.
Gavage of FFA-luc and FFA-S-luc: Anesthetized mice received a 50 μl volume gavage of 300 μM FFA-luc or FFA-S-luc (0.01 mg) in a vehicle of 1:1 PEG 400 and propylene glycol. Mice were awake for 5 minutes post-gavage to stimulate peristalsis before they were re-anesthetized for imaging. Mice were under constant isoflurane administration in the IVIS Spectrum In Vivo Imager and luminescent images were acquired with a 5-minute exposure back to back for 60 minutes.
CT scans: Mice received a 100 μl volume gavage of 80 mg barium sulfate. After one hour, mice received a second barium sulfate gavage, immediately followed by a 50 μl volume gavage of 300 μM FFA-luc (0.01 mg) in a vehicle of 1:1 PEG 400 and propylene glycol. Mice were placed in a Mouse Imaging Shuttle Adaptor (Caliper Life Sciences) and luminescent images were acquired with a 5-minute exposure back to back for 60 minutes. Mice were then transferred to the Quantum FX μCT for CT imaging without disruption of position. Co-registration of luminescent and CT images were performed with Living Image software.

3T3-L1-luc adipocytes = assay: Cell-based fatty acid uptake assay (bioluminescence), adipocytes; details: BSA-bound, 0-100 μM (comparison at 20 μM, 30 min)
Procedure: (§1) Luciferase expressing cellular model (3T3-L1-Luc Cells): 3T3-L1 fibroblasts (ATCC) were stably transfected with the pGL4.51[luc2/CMV/Neo] vector (Promega). Clones with the highest level of luciferase expression were isolated and expanded.
Cell culture and treatment: 3T3-L1-luc fibroblasts were grown in DMEM containing 10% fetal bovine serum with 2 mM L-glutamine and 1% penicillin/streptomycin (DMEM/FBS). […] Differentiated cells were used in experiments on days 8-12 of differentiation.
(§2) Cell-based fatty acid uptake assays: 3T3-L1-luc adipocytes or fibroblasts were seeded into black-wall/clear-bottom-96-well plates (Costar) and treated with 100 μl of a fatty acid uptake buffer consisting of 0.1% BSA in Hank's balanced salt solution (HBSS) in addition to 2-100 μM of the compound. Plates were read immediately and luminescent images were acquired with a 5-minute exposure time back to back for 60 minutes. All cell-based assays utilized the same kinetic acquisition settings.

L2G85 mice [3] = details: mouse, in vivo
Procedure: (§3) To monitor uptake of FFA-luc by internal organs, FFA-luc was bound to the physiological carrier of fatty acids in the serum, i.e. albumin. As a control, animals were injected with an albumin luciferin mix.
(§4) Animal models: Transgenic mice ubiquitously expressing luciferase under control of the actin promoter were used.
(§5) Imaging equipment and software: All luminescent/photographic images were captured with the IVIS Spectrum (Caliper Life Sciences). Total flux (photons/sec) of regions of interest were calculated with the IVIS Living Image software. CT data was acquired with the Quantum FX μCT (Caliper Life Sciences).
(§6) Intravenous injection: Restrained mice received 100 μl volume tail vein injections of 20 μM FFA-luc or FFA-S-luc (0.0014 mg) bound to 0.1% bovine serum albumin (BSA) in phosphate buffered saline (PBS). Mice were immediately anesthetized and luminescent images with a 1-minute exposure were acquired.

3T3-L1-luc fibroblasts = assay: Cell-based fatty acid uptake assay (bioluminescence), undifferentiated fibroblasts; details: 20 μM FFA-luc, 30 min
Procedure: as §1
Cell culture and treatment: 3T3-L1-luc fibroblasts were grown in DMEM containing 10% fetal bovine serum with 2 mM L-glutamine and 1% penicillin/streptomycin (DMEM/FBS). A cell differentiation protocol was followed as previously described (Baldini et al., Cloning of a Rab3 isotype predominantly expressed in adipocytes. Proc Natl Acad Sci USA 89, 5049 (Jun. 1, 1992); Stahl et al., Insulin causes fatty acid transport protein translocation and enhanced fatty acid uptake in adipocytes. Dev Cell 2, 477 (2002)). […]
as §2, with “All cell-based assays utilized the same kinetic acquisition settings.” left out

L2G85 mice [4] = assay: Uptake after intravenous injection (albumin-bound), bioluminescence imaging; details: i.v., bound to/mixed with albumin
Procedure: as §3, §4, §5, §6

[5] = system: FFA-luc uptake by 3T3-L1 adipocytes; assay: FFA-SS-Luc competition assay; format: cell-based
Procedure: FFA-SS-Luc competition assay: 3T3-L1-luc adipocytes were seeded into black-wall/clear-bottom-96-well plates (Costar) and treated with 100 μl fatty acid uptake buffer including 20 μM FFA-luc and a titration of 0-2 mM oleate or methyl-oleate immediately prior to imaging.

[6] = system: FFA-luc uptake by 3T3-L1-luc adipocytes; assay: Insulin-mediated uptake of FFA-luc; format: cell-based; details: 20 μM FFA-luc
Procedure: Insulin-mediated uptake of FFA-luc: 3T3-L1-luc adipocytes were seeded into black-wall/clear-bottom-96-well plates (Costar). One group of cells was serum starved in DMEM for 5 hours followed by the addition of […] fatty acid uptake buffer with 20 μM FFA-luc immediately prior to imaging. A second group of cells was treated with DMEM/fetal bovine serum (FBS) for 5 hours followed by the addition of 100 μl fatty acid uptake buffer with 20 μM FFA-luc and 1 ug/mL insulin immediately prior to imaging.

Compound: C[C@H](Cc1ccc2c(c1)OC(C(=O)[O-])(C(=O)[O-])O2)NC[C@H](O)c1cccc(Cl)c1.[Na+].[Na+] [CL316,243, reference compound]
effect on compound 1 uptake by BAT (L2G85 mice [1]; CL316,243 1 mg/kg i.p.): highly reproducible and significant increase

signal from BAT (intact and excised) after intraperitoneal injection (L2G85 mice [1]): little or no signal
bioluminescent signal in the live animal after oral gavage (L2G85 mice [2]): weak and diffuse signal
Compound: O=C(O)CCCCCCCCCCCCCCCSCCCOC(=O)Oc1ccc2nc(C3=N[C@@H](C(=O)O)CS3)sc2c1 [FFA-S-luc, (S)-2-(6-((3-(15-carboxypentadecylthio)propoxy)carbonyloxy)benzo[d]thiazol-2-yl)-4,5-dihydrothiazole-4-carboxylic acid]

signal from BAT (intact and excised) after intraperitoneal injection (L2G85 mice [1]): robust light signal
uptake by excised organs after tail vein injection (L2G85 mice [3]): taken up by several organs
light production of removed interscapular brown adipose tissue after injection (L2G85 mice [3]; iv): robust light production
photon emission from isolated heart after intravenous injection (L2G85 mice [3]; iv): high signal
photon emission from isolated liver after intravenous injection (L2G85 mice [3]; iv): low signal
signal from stomach and colon, excised GI tract after oral gavage (L2G85 mice [2]; ex vivo, stomach and colon): negative
Compound: O=C(O)CCCCCCCCCCCCCCCSSCCCOC(=O)Oc1ccc2nc(C3=N[C@@H](C(=O)O)CS3)sc2c1 [FFA-luc, (S)-2-(6-((3-((15-carboxypentadecyl)disulfanyl)propoxy)carbonyloxy)benzo[d]thiazol-2-yl)-4,5-dihydrothiazole-4-carboxylic acid]
uptake by luciferase-expressing 3T3 L1 adipocytes (light signal / uptake rate) (3T3-L1-luc adipocytes): robust, dose-dependent signal
uptake kinetics by undifferentiated fibroblast-like 3T3 L1 cells versus adipocytes (3T3-L1-luc fibroblasts): significantly lower
signal from small intestine, excised GI tract after oral gavage (L2G85 mice [2]; ex vivo, small intestine / duodenum): robust signal; also recorded: strongest signal was generated by the proximal duodenum
bioluminescent signal in the live animal after oral gavage (L2G85 mice [2]): distinct signal emanating from an area consistent with the small intestine; also recorded: abdominal signal

Compound: COC(=O)CCCCCCCCCCCCCCCSSCCCOC(=O)Oc1ccc2nc(C3=N[C@@H](C(=O)O)CS3)sc2c1 [Me-FFA-luc, (S)-2-(6-((3-((16-methoxy-16-oxohexadecyl)disulfanyl)propoxy)carbonyloxy)benzo[d]thiazol-2-yl)-4,5-dihydrothiazole-4-carboxylic acid]
uptake by luciferase-expressing 3T3 L1 adipocytes (light signal / uptake rate) (3T3-L1-luc adipocytes; listed as methyl ester of the FFA-luc): slower, non-saturable uptake
uptake by luciferase-expressing 3T3 L1 adipocytes (light signal / uptake rate) (3T3-L1-luc adipocytes; listed as methyl-FFA-luc): significantly lower uptake rates

Compound: O=C(O)[C@H]1CSC(c2nc3ccc(O)cc3s2)=N1 [luciferin, reference compound]
uptake by luciferase-expressing 3T3 L1 adipocytes (light signal / uptake rate) (3T3-L1-luc adipocytes): significantly lower uptake rates
bioluminescent signal in the live animal after intravenous injection (L2G85 mice [4]): very rapid, bright, and delocalized signal

Compound: CCCCCCCC/C=C\CCCCCCCC(=O)OC [methyl-oleate]
competition with FFA-luc uptake by adipocytes ([5]; 20 μM FFA-luc, excess competitor (0-2 mM titration)): did not compete and not

Compound: CCCCCCCC/C=C\CCCCCCCC(=O)O [oleate]
IC50 ([5]; Mus musculus, 3T3-L1, read-out: IC50, inhibition of uptake of FFA-luc by 3T3-L1 adipocytes): 17 µM

Compound: insulin
effect on FFA-luc uptake by adipocytes [6]: stimulatory effect
